Assay results taken from publication doi:10.1101/2025.04.02.646353v2, “Novel dopaminergic neurotransmission in the Octopus visual system” (biorxiv, 2025).

Columns and labels:
Experiment in all cases: two-electrode voltage clamp, Xenopus oocytes
AChRB1 (O. vulgaris) = test system: T1, AChRB1 (O. vulgaris); type: cell-based, Octopus vulgaris; conditions: agonist; ND96, -60 mV
T1 construct: full-length cDNA cloned from 1-dph O. vulgaris paralarvae, KSM vector, Xenopus oocytes; expressed alone (homomeric); LOC number follows O. sinensis annotation

DopC1 (O. vulgaris) [1] = test system: T2, DopC1 (O. vulgaris); type: cell-based, Octopus vulgaris; conditions: agonist; ND96, -60 mV
T2 construct: full-length cDNA cloned from 1-dph O. vulgaris paralarvae, KSM vector, Xenopus oocytes; homomeric cys-loop channel; LOC number follows O. sinensis annotation

DopC1 from Daphnia magna = molecular target: T3, DopC1 from Daphnia magna (Daphnia magna, UniProt A0A0P5YVQ3); type: cell-based; conditions: agonist; ND96, -60 mV
T3 construct: cDNA cloned from adult D. magna RNA, KSM vector, Xenopus oocytes; homomeric; LOC116927457 assigned to DopC1 by printed order only (DopC2 = LOC116923538)
T3 sequence (A0A0P5YVQ3 24-503): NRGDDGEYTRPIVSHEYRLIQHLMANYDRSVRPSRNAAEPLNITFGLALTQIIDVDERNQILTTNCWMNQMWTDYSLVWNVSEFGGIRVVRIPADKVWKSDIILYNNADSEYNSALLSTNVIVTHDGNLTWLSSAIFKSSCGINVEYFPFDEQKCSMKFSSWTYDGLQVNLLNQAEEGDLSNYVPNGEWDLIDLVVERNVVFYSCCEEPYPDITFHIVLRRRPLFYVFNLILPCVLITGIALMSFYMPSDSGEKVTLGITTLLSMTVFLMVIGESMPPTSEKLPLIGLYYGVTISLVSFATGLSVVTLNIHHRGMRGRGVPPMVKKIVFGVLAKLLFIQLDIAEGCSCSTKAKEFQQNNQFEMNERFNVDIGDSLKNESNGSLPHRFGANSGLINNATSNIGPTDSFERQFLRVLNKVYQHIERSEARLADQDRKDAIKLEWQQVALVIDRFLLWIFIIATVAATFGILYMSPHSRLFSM

DopC2 from Daphnia magna = molecular target: T4, DopC2 from Daphnia magna (Daphnia magna, UniProt A0A0P6GTI1); type: cell-based; conditions: agonist; ND96, -60 mV
T4 construct: gene APZ42_017815; cDNA cloned from adult D. magna RNA, KSM vector, Xenopus oocytes; homomeric; LOC116923538 assigned to DopC2 by printed order only (DopC1 = LOC116927457)
T4 sequence (A0A0P6GTI1 36-620): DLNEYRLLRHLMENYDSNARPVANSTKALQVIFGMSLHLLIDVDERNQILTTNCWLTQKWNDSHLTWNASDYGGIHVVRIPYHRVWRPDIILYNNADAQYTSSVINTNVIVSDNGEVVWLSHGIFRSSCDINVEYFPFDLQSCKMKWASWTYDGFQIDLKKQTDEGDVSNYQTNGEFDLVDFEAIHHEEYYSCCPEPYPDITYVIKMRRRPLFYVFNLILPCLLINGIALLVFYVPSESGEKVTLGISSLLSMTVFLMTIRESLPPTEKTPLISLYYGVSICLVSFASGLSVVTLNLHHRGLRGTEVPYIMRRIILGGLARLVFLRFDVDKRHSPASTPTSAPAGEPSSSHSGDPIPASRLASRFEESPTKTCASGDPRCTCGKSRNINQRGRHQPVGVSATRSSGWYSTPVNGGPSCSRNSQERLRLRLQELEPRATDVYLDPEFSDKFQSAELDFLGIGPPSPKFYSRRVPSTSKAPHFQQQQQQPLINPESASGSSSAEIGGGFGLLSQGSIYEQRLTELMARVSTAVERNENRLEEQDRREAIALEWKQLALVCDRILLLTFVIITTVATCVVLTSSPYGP

[2] = molecular target: T5, DopC1 from Aplysia californica (Aplysia californica, UniProt A0ABM0GHJ1); type: cell-based
T5 construct: gene LOC101853763; full-length synthetic cDNA (GeneArt), KSM vector, Xenopus oocytes; homomeric channel
T5 sequence (A0ABM0GHJ1 25-518): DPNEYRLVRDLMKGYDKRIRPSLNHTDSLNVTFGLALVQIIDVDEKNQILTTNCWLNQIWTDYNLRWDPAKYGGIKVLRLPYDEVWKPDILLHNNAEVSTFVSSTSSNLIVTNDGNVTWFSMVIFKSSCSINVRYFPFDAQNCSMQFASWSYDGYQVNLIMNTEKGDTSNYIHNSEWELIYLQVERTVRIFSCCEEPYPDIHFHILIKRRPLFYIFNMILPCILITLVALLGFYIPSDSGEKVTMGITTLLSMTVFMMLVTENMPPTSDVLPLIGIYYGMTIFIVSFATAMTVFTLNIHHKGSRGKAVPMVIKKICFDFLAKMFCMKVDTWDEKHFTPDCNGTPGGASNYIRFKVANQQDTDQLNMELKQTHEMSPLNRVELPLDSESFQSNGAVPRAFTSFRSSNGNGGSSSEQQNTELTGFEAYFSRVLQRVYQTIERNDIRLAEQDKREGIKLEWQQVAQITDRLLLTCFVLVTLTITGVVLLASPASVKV

[3] = molecular target: T6, DopC1 from Apis mellifera (Apis mellifera, UniProt A0A7M7R6H2); type: cell-based
T6 construct: gene LOC408525; full-length synthetic cDNA (GeneArt), KSM vector, Xenopus oocytes; homomeric channel
T6 sequence (A0A7M7R6H2 91-549): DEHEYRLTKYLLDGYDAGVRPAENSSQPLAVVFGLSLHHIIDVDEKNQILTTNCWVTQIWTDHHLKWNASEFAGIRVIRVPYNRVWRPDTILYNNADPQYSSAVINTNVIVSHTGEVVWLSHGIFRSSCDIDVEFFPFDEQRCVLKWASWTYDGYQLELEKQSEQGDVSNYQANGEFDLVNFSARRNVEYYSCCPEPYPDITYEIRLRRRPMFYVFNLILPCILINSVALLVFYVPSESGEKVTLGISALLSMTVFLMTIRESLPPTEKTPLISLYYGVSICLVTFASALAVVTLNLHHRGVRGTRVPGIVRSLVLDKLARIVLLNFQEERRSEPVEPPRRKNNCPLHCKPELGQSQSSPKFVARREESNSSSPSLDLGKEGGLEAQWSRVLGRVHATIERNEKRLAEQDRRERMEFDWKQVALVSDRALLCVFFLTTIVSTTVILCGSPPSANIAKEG

DopC1 (O. vulgaris) [4] = test system: T2, DopC1 (O. vulgaris); type: cell-based, Octopus vulgaris; conditions: antagonist; against 10 µM dopamine (~EC50); ND96, -60 mV

With `CC(=O)OCC[N+](C)(C)C` [acetylcholine] as the molecule, how does the EC50 (AChRB1 (O. vulgaris)) read?
The EC50 was 1.9 µM.

With `CNCC(O)c1ccc(O)c(O)c1` (racemic) [epinephrine] as the molecule, how does the EC50 (DopC1 (O. vulgaris) [1]) read?
Its EC50 is 35 µM.

Which EC50 (DopC1 (O. vulgaris) [1]) does the source give for `NCCc1c[nH]c2ccc(O)cc12` [serotonin] here?
The EC50 was 73 µM.

`C[N+](C)(C)CCO` [choline] was tested. Which EC50 (AChRB1 (O. vulgaris)) did it give?
Its EC50 is 98 µM.

`NCC(O)c1ccc(O)c(O)c1` (racemic) [norepinephrine] was tested. Which EC50 (DopC1 from Daphnia magna) did it give?
Its EC50 is 82 µM.

What about the EC50 (DopC2 from Daphnia magna) of the same molecule?
Its EC50 is 36 µM.

What about the EC50 (DopC1 (O. vulgaris) [1]) of the same molecule?
The EC50 was 55 µM.

And the EC50 [2]?
Its EC50 is 8.4 µM.

And the EC50 [3]?
Its EC50 is 6.3 µM.

Which results are given for `NCCc1ccc(O)c(O)c1` [dopamine]?
EC50 (DopC1 from Daphnia magna): 50 µM; EC50 (DopC2 from Daphnia magna): 4.6 µM; EC50 (DopC1 (O. vulgaris) [1]): 7.6 µM; EC50 [2]: 3.5 µM; EC50 [3]: 1.7 µM

How did the IC50 (DopC1 (O. vulgaris) [4]) turn out when `CN1CCc2cccc3c2[C@H]1Cc1ccc(O)c(O)c1-3` [apomorphine] was run?
Its IC50 is 7 µM.

How did the EC50 (DopC1 (O. vulgaris) [1]) turn out when `NCC(O)c1ccc(O)cc1` (racemic) [octopamine] was run?
Its EC50 is 18000 µM.

With `NCCc1ccc(O)cc1` [tyramine] as the molecule, how does the EC50 (DopC1 (O. vulgaris) [1]) read?
Its EC50 is 180 µM.
